Read-outs that look alike come from different tables or passages of the source. Where a SMILES comes first, the peptide text is derived from it. [ ]: non-standard residue; d: D form. The star is where a group is joined. DOTA = O=C(O)CN1CCN(CC(=O)O)CCN(CC(=O)*)CCN(CC(=O)O)CC1; 1Nal = N[C@@H](Cc1cccc2ccccc12)C(=O)O; NMeNle = CCCC[C@H](NC)C(=O)O
Legend:
human CCK2R = target: T1, human CCK2R (Homo sapiens, UniProt P32239); assay: CCK2R competition binding assay against [125I]Tyr12-gastrin-I on A431-CCK2R cells
T1 construct: expressed in transfected cells; host or cells: A431 human epidermoid carcinoma cells (A431-CCK2R), plasmid pCR3.1, provided by Dr. Luigi Aloj
T1 sequence (P32239 1-447): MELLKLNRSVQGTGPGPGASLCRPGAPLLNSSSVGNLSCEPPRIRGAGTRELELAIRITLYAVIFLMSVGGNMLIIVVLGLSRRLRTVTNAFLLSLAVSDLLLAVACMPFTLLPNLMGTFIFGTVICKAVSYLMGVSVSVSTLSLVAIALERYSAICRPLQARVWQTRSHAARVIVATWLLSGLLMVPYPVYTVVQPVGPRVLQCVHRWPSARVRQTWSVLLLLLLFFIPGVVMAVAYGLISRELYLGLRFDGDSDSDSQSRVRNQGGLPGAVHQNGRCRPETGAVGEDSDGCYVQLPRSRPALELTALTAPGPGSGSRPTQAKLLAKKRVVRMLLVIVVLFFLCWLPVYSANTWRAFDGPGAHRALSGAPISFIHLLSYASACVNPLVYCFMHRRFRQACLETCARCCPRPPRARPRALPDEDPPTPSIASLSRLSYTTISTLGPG
Description: Affinity for CCK2R was studied in A431 human epidermoid carcinoma cells stably transfected with the plasmid pCR3.1 containing the full coding sequence for the human CCK2R (A431-CCK2R) kindly provided by Dr. Luigi Aloj (Aloj L et al., J Nucl Med 2004, 45: 485-494). […] Radioiodination of gastrin-1 was carried out using the chloramine-T method. Non-carrier-added [^125I-Tyr^12]gastrind was obtained by HPLC purification and stored in aliquots at −20° C. Binding assays were carried out in 96-well filter plates (MultiScreenHTS-FB, Merck Group, Darmstadt, Germany) pretreated with 10 mM TRIS/139 mM NaCl pH 7.4 (2×250 μl). For the assay a number of 200,000-400,000 A431-CCK2R cells per well was prepared in 35 mM HEPES buffer pH 7.4 containing 10 mM MgCl2, 14 μM bacitracin and 0.5% BSA (a hypotonic solution disturbing the integrity of the cell membranes). The cells were incubated in triplicates with increasing concentrations of the peptidomimetics (0.0003 to 10,000 nM, for example 0.001 to 1000 nM) and [^125I-Tyr^12]gastrin-I (20,000-60,000 cpm) for 1 h at RT. Incubation was interrupted by filtration of the medium and rapid rinsing with ice-cold 10 mM TRIS/139 mM NaCl pH 7.4 (2×200 μl) and the filters were counted in the gamma-counter. Half maximal inhibitory concentration (IC50) values were calculated following nonlinear regression with Origin software (Microcal Origin 6.1, Northampton, MA) and a representative assay was chosen for comparison.

[1] = biodistribution: uptake in normal tissues; type: in vivo, athymic BALB/c nude mice
Description: Biodistribution studies evaluating the tumour uptake of the radiolabelled inventive CCK2R targeting peptide analogues were performed in 7-week-old female athymic BALB/c nude mice (Charles River, Sulzfeld, Germany). All animal experiments were conducted in compliance with the Austrian animal protection laws and with the approval of the Austrian Ministry of Science. For the induction of tumour xenografts, A431-CCK2R and A431-mock cells were injected subcutaneously in the right and left flank respectively (2 million cells in 200 μl). When tumours had reached a size of approximately 0.2 ml biodistribution studies were carried out. Groups of 4 mice were injected intravenously via a lateral tail vein with the peptidomimetics of the present invention, labelled with ^111In (approximately 0.2 MBq and 0.02 nmol peptidomimetic), with ^68Ga (approximately 0.8 MBq and 0.02-0.03 nmol peptidomimetic), with ^177Lu (approximately 0.5 MBq and 0.02 nmol peptidomimetic) or with ^99mTc (approximately 0.3 MBq and 0.02 nmol peptidomimetic). After a time period of 1 or 4 h post-injection (p.i.) the animals were sacrificed by cervical dislocation, tumours and other tissues (blood, lung, heart, muscle, bone, spleen, intestine, liver, kidneys, stomach, pancreas) were removed, weighed, and their radioactivity measured in the gamma counter. Results were expressed as percentage of injected activity per gram tissue (% IA/g) and tumour to organ activity ratios were calculated from the activity measured in the dissected tissues. In FIG. 4 the results of the biodistribution studies at 4 h p.i. are summarized for the ^111In-labelled peptidomimetics of the present invention in comparison with ^111In-DOTA-MGS1 and ^111In-DOTA-MGS4 (Klingler M et al., Eur J Nucl Med Mol Imaging 2017, 44: S228). In FIG. 5 the results for the model peptidomimetics of the present invention, DOTA-MGS5 and HYNIC-MGS5, radiolabelled with different radiometals are shown for different time points of 1 or 4 h p.i. […] The uptake in A431-mock tumour xenografts with values <1% IA/g was very low confirming the high receptor-specific tumour uptake. […] A combination of high stability and increased protein binding in vivo seems therefore to result in an optimal protection of the radioligand against enzymatic degradation in blood allowing reaching an extremely high tumour uptake.

[2] = in vivo, Nock et al. 2014; cited from earlier work
serum proteins = assay: protein binding to serum proteins (Sephadex G-50 size-exclusion chromatography); type: in vitro ADME; conditions: 37° C.; for fraction unbound at 4 h, 500 pmol/mL / fraction unbound at 24 h, 500 pmol/mL: fresh human serum; for fraction unbound at 4 h, 500 pmol/mL: read-out: Percentage of radioligand bound to serum proteins after 4 h incubation (converted); for fraction unbound at 24 h, 500 pmol/mL: read-out: Percentage of radioligand bound to serum proteins after 24 h incubation (converted); for Percentage of radioligand bound to serum proteins after 24 h incubation: human serum
Description: Additionally, protein binding to serum proteins was investigated. For this purpose the ^111In-labelled peptidomimetics were incubated in duplicates in fresh human serum at 37° C. (500 pmol/mL) and analyzed after 4 and 24 h by Sephadex G-50 size-exclusion chromatography (GE Healthcare Illustra, Little Chalfont, UK). The percentage of protein binding was determined by measuring the column and the eluate in a 2480 Wizard 2 automatic gamma-counter (Perkin Elmer Life Sciences and Analytical Sciences, Turku, F).

[3] = stability in vivo (radio-HPLC of blood sample); conditions: BALB/c mice, i.v., 10 min p.i.
Description: To further characterise the stability of the radiolabelled peptidomimetics in vivo, metabolic studies were carried out in 5-6-week-old female BALB/c mice (Charles River, Sulzfeld, Germany) injected intravenously with the ^111In- and […] peptidomimetics. All animal experiments were conducted in compliance with the Austrian animal protection laws and with the approval of the Austrian Ministry of Science. To allow monitoring of the metabolites by radio-HPLC, mice were injected with a higher amount of radioactivity (5-15 MBq ^111In and 20-40 MBq ^177Lu, corresponding to 1-2 nmol total peptide) through a lateral tail vein and euthanized by cervical dislocation 10 or 30 min post injection (p.i.). A sample of blood was collected and the degradation was assessed by radio-HPLC.

[4] = displacement of [125I]Tyr12-gastrin-I, A431-CCK2R cells, 1 h at RT, read-out: IC50
[5] = female, athymic BALB/c nude, mouse, kidneys, iv, total radioactivity, 1 or 4 h p.i. (111In-labelled series: 4 h p.i.), read-out: kidney uptake
[6] = CCK2R expressing organ, 1 or 4 h p.i.

CCCC[C@@H](C(=O)N[C@@H](CC(=O)O)C(=O)N[C@@H](Cc1cccc2ccccc12)C(N)=O)N(C)C(=O)[C@H](Cc1c[nH]c2ccccc12)NC(=O)CNC(=O)[C@H](Cc1ccc(O)cc1)NC(=O)[C@H](C)NC(=O)[C@@H](CCC(=O)O)NC(=O)CN1CCN(CC(=O)O)CCN(CC(=O)O)CCN(CC(=O)O)CC1 [DOTA-MGS5, DOTA-DGlu-Ala-Tyr-Gly-Trp-(N-Me)Nle-Asp-1Nal-NH2]
IC50 (human CCK2R; [4]): 0.4 ± 0.2 nM
tissue uptake [1, 5]: 4 to 6 %ID/g
tissue uptake ([1]; female, athymic BALB/c nude, mouse, pancreas, iv, total radioactivity, CCK2R expressing organ, 1 or 4 h p.i., read-out: uptake in pancreas): 2 to 3 %ID/g
tissue uptake ([1]; female, athymic BALB/c nude, mouse, stomach, iv, total radioactivity, CCK2R expressing organ, 1 or 4 h p.i., read-out: uptake in stomach): 5 to 8 %ID/g

CCCC[C@@H](C(=O)N[C@@H](CC(=O)O)C(=O)N[C@@H](Cc1ccc2ccccc2c1)C(N)=O)N(C)C(=O)[C@H](Cc1c[nH]c2ccccc12)NC(=O)CNC(=O)[C@H](Cc1ccc(O)cc1)NC(=O)[C@H](C)NC(=O)[C@@H](CCC(=O)O)NC(=O)CN1CCN(CC(=O)O)CCN(CC(=O)O)CCN(CC(=O)O)CC1 [DOTA-MGS5-2, DOTA-DGlu-Ala-Tyr-Gly-Trp-(N-Me)Nle-Asp-2Nal-NH2]
IC50 (human CCK2R; [4]): 1.6 ± 0.4 nM

CCCC[C@@H](C(=O)N[C@@H](CC(=O)O)C(=O)N[C@@H](Cc1cccc2ccccc12)C(N)=O)N(C)C(=O)[C@H](Cc1c[nH]c2ccccc12)NC(=O)CNC(=O)[C@H](Cc1ccc(O)cc1)NC(=O)[C@@H]1CCCN1C(=O)[C@@H](CCC(=O)O)NC(=O)CN1CCN(CC(=O)O)CCN(CC(=O)O)CCN(CC(=O)O)CC1 [DOTA-MGS8, DOTA-DGlu-Pro-Tyr-Gly-Trp-(N-Me)Nle-Asp-1Nal-NH2] ({DOTA}-[dE]PYGW[NMeNle]D[1Nal]-NH2)
IC50 (human CCK2R; [4]): 1.6 ± 0.2 nM

CCCC[C@@H](C(=O)N[C@@H](CC(=O)O)C(=O)N[C@@H](Cc1cccc2ccccc12)C(N)=O)N(C)C(=O)[C@H](Cc1c[nH]c2ccccc12)NC(=O)CNC(=O)[C@@H]1CCCN1C(=O)[C@H](Cc1ccc(O)cc1)NC(=O)[C@@H](CCC(=O)O)NC(=O)CN1CCN(CC(=O)O)CCN(CC(=O)O)CCN(CC(=O)O)CC1 [DOTA-MGS10, DOTA-DGlu-Tyr-Pro-Gly-Trp-(N-Me)Nle-Asp-1Nal-NH2] ({DOTA}-[dE]YPGW[NMeNle]D[1Nal]-NH2)
IC50 (human CCK2R; [4]): 0.9 ± 0.2 nM

CSCC[C@H](NC(=O)[C@H](Cc1c[nH]c2ccccc12)NC(=O)CNC(=O)[C@H](Cc1ccc(O)cc1)NC(=O)[C@H](C)NC(=O)[C@@H](CCC(=O)O)NC(=O)[C@@H](CCC(=O)O)NC(=O)[C@@H](CCC(=O)O)NC(=O)[C@@H](CCC(=O)O)NC(=O)[C@@H](CCC(=O)O)NC(=O)[C@@H](CCC(=O)O)NC(=O)CN1CCN(CC(=O)O)CCN(CC(=O)O)CCN(CC(=O)O)CC1)C(=O)N[C@@H](CC(=O)O)C(=O)N[C@@H](Cc1ccccc1)C(N)=O [PP-F11, reference compound]
IC50 (human CCK2R): 0.4 ± 0.1 nM

CCCC[C@@H](C(=O)N[C@@H](CC(=O)O)C(=O)N[C@@H](Cc1cccc2ccccc12)C(N)=O)N(C)C(=O)[C@H](Cc1c[nH]c2ccccc12)NC(=O)CNC(=O)[C@H](Cc1ccc(O)cc1)NC(=O)[C@H](C)NC(=O)[C@@H](CCC(=O)O)NC(=O)CN1CCN(CC(=O)O)CCN(CC(=O)O)CCN(CC(=O)O)CC1 [^68Ga-DOTA-MGS5, metal not drawn]
tissue uptake ([1]; female, athymic BALB/c nude, mouse, blood, lung and heart, iv, total radioactivity, 1 or 4 h p.i., read-out: unspecific tissue uptake in blood, lung and heart): 1 to 2 %ID/g

CCCC[C@@H](C(=O)N[C@@H](CC(=O)O)C(=O)N[C@@H](Cc1cccc2ccccc12)C(N)=O)N(C)C(=O)[C@H](Cc1c[nH]c2ccccc12)NC(=O)CNC(=O)[C@H](Cc1ccc(O)cc1)NC(=O)[C@H](C)NC(=O)[C@@H](CCC(=O)O)NC(=O)c1ccc(NN)nc1 [^99mTc-HYNIC-MGS5, metal not drawn]
kidney uptake ([1]; 1 or 4 h p.i. (111In-labelled series: 4 h p.i.)): 8 % IA/g
uptake in pancreas [1, 6]: 7 % IA/g
uptake in stomach [1, 6]: 13 % IA/g

CSCC[C@H](NC(=O)[C@H](Cc1c[nH]c2ccccc12)NC(=O)CNC(=O)[C@H](Cc1ccc(O)cc1)NC(=O)[C@H](C)NC(=O)[C@@H](CCC(=O)O)NC(=O)CN1CCN(CC(=O)O)CCN(CC(=O)O)CCN(CC(=O)O)CC1)C(=O)N[C@@H](CC(=O)O)C(=O)N[C@@H](Cc1ccccc1)C(N)=O [^111In-DOTA-MG11, metal not drawn, reference compound] ({DOTA}-[dE]AYGWMDF-NH2)
intact radiopeptide 5 min after injection [2]: 5%
fraction unbound at 4 h, 500 pmol/mL (serum proteins): 0.899
fraction unbound at 24 h, 500 pmol/mL (serum proteins): 0.938
Percentage of radioligand bound to serum proteins after 24 h incubation (serum proteins): < 10%

CCCC[C@@H](C(=O)N[C@@H](CC(=O)O)C(=O)N[C@@H](Cc1cccc2ccccc12)C(N)=O)N(C)C(=O)[C@H](Cc1c[nH]c2ccccc12)NC(=O)CNC(=O)[C@H](Cc1ccc(O)cc1)NC(=O)[C@H](C)NC(=O)[C@@H](CCCCN)NC(=O)CN1CCN(CC(=O)O)CCN(CC(=O)O)CCN(CC(=O)O)CC1 [^111In-DOTA-MGS9, metal not drawn] ({DOTA}-[dK]AYGW[NMeNle]D[1Nal]-NH2)
fraction unbound at 4 h, 500 pmol/mL (serum proteins): 0.734
fraction unbound at 24 h, 500 pmol/mL (serum proteins): 0.722
Percentage of radioligand bound to serum proteins after 24 h incubation (serum proteins): ~30%
intact radioligand present in the blood at 10 min p.i. [3]: 93.9±1.2%
tissue uptake at 4 h ([1]; female, athymic BALB/c nude, mouse, intestine and liver, iv, 0.02 nmol peptidomimetic, total radioactivity, 4 h p.i.): ~2 %ID/g
tissue uptake [1, 5]: 20.7 ± 4.4 %ID/g

Reference: US12049518B2, “Pharmacokinetics and cholecystokinin-2 receptor (CCK2R) targeting for diagnosis and therapy” (Medizinische Universitat Innsbruck, priority 2017, dated 2024)
